Among the data in patent US20230416262A1, “TRPML MODULATORS” (Casma Therapeutics, Inc., priority 2020, published 2023) are EC50 values, retold here.

Bounds are passed on as bounds.

This test relates to TFEB. The experiment in a line: TFEB nuclear translocation assay. The following applies: Homo sapiens; HeLa wt or HeLa TRPML1 KO cells, treated for 2 hrs; ratio of nuclear to ring-region TFEB intensity. It is filed as cell-based. How it is done:
For the TFEB nuclear translocation assay, HeLa wt or HeLa TRPML1 KO cells were plated at 2700 cells/well into black-walled, 384-well Cell carrier Ultra tissue culture treated plates in complete media and incubated overnight. The next day, cells are treated for 2 hrs with compounds and incubated at 37° C. Cells were then fixed for 30 minutes at room temperature in 4% final PFA and washed five times with 90 μL PBS. PBS is aspirated from the wells and the cells are blocked with 7.5 μL blocking buffer (1.1 PBS/Odyssey block buffer containing 0.1% triton x-100 and 1% goat serum). After 30-60 minutes of block, 7.5 μL of primary anti-TFEB (rabbit) antibody is added for a final dilution of 1:200 antibody in 15 μL blocking buffer. Plates are incubated overnight at 4° C. The following day, plates are washed again into PBS, 90 μL with 5 washes, all PBS is aspirated from the wells and the cells are incubated for 1 hr in 1:1000 goat-anti rabbit Alexa 488 secondary antibody, also containing 10 μg/mL Hoechst 33342. After the 1 hr RT incubation, plates are washed a final time into PBS, sealed with foil and imaged with an automated epifluorescence microscopy (PerkinElmer Operetta CLS). Four different fields were imaged per well using ×20 magnification for DAPI and FITC filter sets. Images were quantified using PerkinElmer Harmony software, briefly: apply flatfield correction (basic/advanced) for input images. Use the Find Nuclei building block with channel set at Hoechst to find the nuclei. Use the Find cytoplasm building block with channel set to Alexa 488 to find the cytoplasm. Use select cell region with Channel set at Alexa 488 and region of interest as Nuclei and define outer border at 0 μm and inner at 45 μm to cover complete nuclei. Use select cell region with Channel set at Alexa 488 and region of interest as ring region and define outer border at −5 μm and inner at 0 μm to define a ring around the nucleus. Use the find calculate intensity parameter to calculate intensity of the nuclear region and the ring region. Define results as Number of nuclei and ratio of A/B where A is Intensity of Nuclei and B is intensity of the ring region.

For `CN1Cc2cc(S(=O)(=O)N3CC4(CCCC4)c4ccccc43)ccc2C1=O` [Compound I-55, 5-({1′,2′-dihydrospiro[cyclopentane-1,3′-indol]-1′-yl}sulfonyl)-2-methyl-2,3-dihydro-1H-isoindol-1-one], the EC50 is not below 10 µM.

Regarding `COC(C)(C)c1ccc(S(=O)(=O)N2CC3(CCCC3)c3ccccc32)cc1` [Compound I-56, 1′-[4-(2-methoxypropan-2-yl)benzenesulfonyl]-1′,2′-dihydrospiro[cyclopentane-1,3′-indole]], the EC50 was not below 10 µM.

Consider `CC1(C)OCc2ccc(S(=O)(=O)N3CC4(CCCC4)c4ccccc43)cc21` [Compound I-58, 1′-[(3,3-dimethyl-1,3-dihydro-2-benzofuran-5-yl)sulfonyl]-1′,2′-dihydrospiro[cyclopentane-1,3′-indole]], for which the EC50 lay within 2.01 to 8 µM.

As to `O=S(=O)(c1ccc2c(c1)CCOC2)N1CC2(CCCC2)c2ccccc21` [Compound I-59, 1′-(3,4-dihydro-1H-2-benzopyran-6-sulfonyl)-1′,2′-dihydrospiro[cyclopentane-1,3′-indole]], the EC50 is not below 10 µM.

As to `COC(C)(C)c1cccc(S(=O)(=O)N2CC3(CCCC3)c3ccccc32)c1` [Compound I-60, 1′-[3-(2-methoxypropan-2-yl)benzenesulfonyl]-1′,2′-dihydrospiro[cyclopentane-1,3′-indole]], the EC50 is 8.01 to 9.99 µM.

`CC(C)(O)c1cccc(S(=O)(=O)N2CC3(CCCC3)c3ccccc32)c1` [Compound I-61, 2-[3-({1′,2′-dihydrospiro[cyclopentane-1,3′-indol]-1′-yl}sulfonyl)phenyl]propan-2-ol]: the EC50 is not below 10 µM.

With `COC(=O)c1ccc(CS(=O)(=O)N2CC3(CCCC3)c3ccccc32)cc1` [Compound I-62, methyl 4-[({1′,2′-dihydrospiro[cyclopentane-1,3′-indol]-1′-yl}sulfonyl)methyl]benzoate], the EC50 was not below 10 µM.

`CS(=O)(=O)Nc1ccc(S(=O)(=O)N2CC3(CCCC3)c3ccccc32)cc1` [Compound I-63, N-[4-({1′,2′-dihydrospiro[cyclopentane-1,3′-indol]-1′-yl}sulfonyl)phenyl]methanesulfonamide]: the EC50 is not below 10 µM.

In the case of `O=S(=O)(c1ccc2c(c1)OC1(CCC1)O2)N1CC2(CCCC2)c2ccccc21` [Compound I-64, 1′-({spiro[1,3-benzodioxole-2,1′-cyclobutan]-6-yl}sulfonyl)-1′,2′-dihydrospiro[cyclopentane-1,3′-indole]], the EC50 fell in the range of 2.01 to 8 µM.

In the case of `CS(=O)(=O)c1ccc(S(=O)(=O)N2CC3(CCN(c4ccc(Cl)cc4F)CC3)c3ccccc32)cc1` [Compound I-65, 1′-(4-chloro-2-fluorophenyl)-1-((4-(methylsulfonyl)phenyl)sulfonyl)spiro[indoline-3,4′-piperidine]], the half-maximal effective concentration (EC50) is not above 2 µM.

Turning to `CC1(C)OCc2cc(S(=O)(=O)N3CC4(CCCC4)c4ccccc43)ccc21` [Compound I-66, 1′-((1,1-dimethyl-1,3-dihydroisobenzofuran-5-yl)sulfonyl)spiro[cyclopentane-1,3′-indoline]], the EC50 fell in the range of 2.01 to 8 µM.

On to `CN(C)S(=O)(=O)c1ccc(S(=O)(=O)N2CC3(CCOCC3)c3ccccc32)cc1` [Compound I-69, 4-({1,2-dihydrospiro[indole-3,4′-oxan]-1-yl}sulfonyl)-N,N-dimethylbenzene-1-sulfonamide], for which the EC50 is not above 2 µM.

With `CN(C)S(=O)(=O)c1ccc(S(=O)(=O)N2CC3(CCCC3)c3cnccc32)cc1` [Compound I-70, 4-({1′,2′-dihydrospiro[cyclopentane-1,3′-pyrrolo[3,2-c]pyridin]-1′-yl}sulfonyl)-N,N-dimethylbenzene-1-sulfonamide], the EC50 is not below 10 µM.

On to `CN(C)S(=O)(=O)c1ccc(S(=O)(=O)N2CC3(CCCC3)c3cccnc32)cc1` [Compound I-71, 4-({1′,2′-dihydrospiro[cyclopentane-1,3′-pyrrolo[2,3-b]pyridin]-1′-yl}sulfonyl)-N,N-dimethylbenzene-1-sulfonamide], for which the EC50 is not below 10 µM.

Take `CN(C)S(=O)(=O)c1ccc(S(=O)(=O)N2CC3(CCC(O)CC3)c3ccccc32)cc1` (stereo not shown) [Compound I-72, 4-({4-hydroxy-1′,2′-dihydrospiro[cyclohexane-1,3′-indol]-1′-yl}sulfonyl)-N,N-dimethylbenzene-1-sulfonamide]: the EC50 is 2.01 to 8 µM.

In the case of `Cc1cccc(-n2cc(S(=O)(=O)N3CC4(CCCC4)c4ccccc43)cn2)c1` [Compound I-75, 1′-{[1-(3-methylphenyl)-1H-pyrazol-4-yl]sulfonyl}-1′,2′-dihydrospiro[cyclopentane-1,3′-indole]], the EC50 lay within 8.01 to 9.99 µM.

Take `CN(C)S(=O)(=O)c1ccc(S(=O)(=O)N2CC3(CCOC3)c3ccccc32)cc1` (stereo not shown) [Compound I-76, 4-({1,2-dihydrospiro[indole-3,3′-oxolan]-1-yl}sulfonyl)-N,N-dimethylbenzene-1-sulfonamide]: the EC50 was in the range of 2.01 to 8 µM.

Turning to `CN(C)S(=O)(=O)c1ccc(S(=O)(=O)N2CC3(CCCO3)c3ccccc32)cc1` (stereo not shown) [Compound I-77, 4-({1,2-dihydrospiro[indole-3,2′-oxolan]-1-yl}sulfonyl)-N,N-dimethylbenzene-1-sulfonamide], the EC50 was not above 2 µM.

`CN(C)S(=O)(=O)c1ccc(S(=O)(=O)N2CC3(CCCC3)c3ncccc32)cc1` [Compound I-78, N,N-dimethyl-4-(spiro[cyclopentane-1,3′-pyrrolo[3,2-b]pyridin]-1′(2′H)-ylsulfonyl)benzenesulfonamide]: the EC50 is 2.01 to 8 µM.

Regarding `CN1CCC2(CC1)CN(S(=O)(=O)Cc1ccccc1)c1ccccc12` [Compound I-82, 1′-methyl-1-phenylmethanesulfonyl-1,2-dihydrospiro[indole-3,4′-piperidine]], the EC50 is not below 10 µM.

On to `CN1CCC2(CC1)CN(S(=O)(=O)c1ccc(S(=O)(=O)N(C)C)cc1)c1ccccc12` [Compound I-84, N,N-dimethyl-4-({1′-methyl-1,2-dihydrospiro[indole-3,4′-piperidin]-1-yl}sulfonyl)benzene-1-sulfonamide], for which the EC50 was not below 10 µM.

For the compound `O=S(=O)(Cc1ccccc1)N1CC2(CCN(CC(F)(F)F)CC2)c2ccccc21` [Compound I-85, 1-phenylmethanesulfonyl-1′-(2,2,2-trifluoroethyl)-1,2-dihydrospiro[indole-3,4′-piperidine]], the EC50 was not below 10 µM.

As for `CN1CCC2(C1)CN(S(=O)(=O)Cc1ccccc1)c1ccccc12` (stereo not shown) [Compound I-88, 1′-methyl-1-phenylmethanesulfonyl-1,2-dihydrospiro[indole-3,3′-pyrrolidine]], the EC50 is not below 10 µM.

For `CN1CCC2(C1)CN(S(=O)(=O)c1ccc(C(F)F)cc1)c1ccccc12` (stereo not shown) [Compound I-89], the half-maximal effective concentration (EC50) is not below 10 µM.

`CN1CCC2(C1)CN(S(=O)(=O)c1ccc(S(=O)(=O)N(C)C)cc1)c1ccccc12` (stereo not shown) [Compound I-90, N,N-dimethyl-4-({1′-methyl-1,2-dihydrospiro[indole-3,3′-pyrrolidin]-1-yl}sulfonyl)benzene-1-sulfonamide]: the EC50 was not below 10 µM.

With `CN(C)S(=O)(=O)c1ccc(S(=O)(=O)N2CC3(CCN(CC(F)(F)F)C3)c3ccccc32)cc1` (stereo not shown) [Compound I-93, N,N-dimethyl-4-{[1′-(2,2,2-trifluoroethyl)-1,2-dihydrospiro[indole-3,3′-pyrrolidin]-1-yl]sulfonyl}benzene-1-sulfonamide], the EC50 is not above 2 µM.

Consider `CN(C)S(=O)(=O)c1ccc(S(=O)(=O)N2CC3(CCN(CC4CCOCC4)C3)c3ccccc32)cc1` (stereo not shown) [Compound I-96, N,N-dimethyl-4-({1′-[(oxan-4-yl)methyl]-1,2-dihydrospiro[indole-3,3′-pyrrolidin]-1-yl}sulfonyl)benzene-1-sulfonamide], for which the EC50 fell in the range of 2.01 to 8 µM.

Regarding `CN(C)S(=O)(=O)c1ccc(S(=O)(=O)N2CC3(CN(Cc4ccccc4)C3)c3ccccc32)cc1` [Compound I-102, 4-({1-benzyl-1′,2′-dihydrospiro[azetidine-3,3′-indol]-1′-yl}sulfonyl)-N,N-dimethylbenzene-1-sulfonamide], the EC50 was in the range of 2.01 to 8 µM.

Turning to `CN(C)S(=O)(=O)c1ccc(S(=O)(=O)N2CC3(CCN(c4ccc(Cl)cc4F)CC3)c3ccccc32)cc1` [Compound I-106, 4-{[1′-(4-chloro-2-fluorophenyl)-1,2-dihydrospiro[indole-3,4′-piperidin]-1-yl]sulfonyl}-N,N-dimethylbenzene-1-sulfonamide], the EC50 was not above 2 µM.

Consider `O=C(OCc1ccccc1)N1CCC2(C1)CN(S(=O)(=O)Cc1ccccc1)c1ccccc12` (stereo not shown) [Compound I-115, benzyl 1-phenylmethanesulfonyl-1,2-dihydrospiro[indole-3,3′-pyrrolidine]-1′-carboxylate], for which the EC50 was in the range of 2.01 to 8 µM.

On to `CC(CS(=O)(=O)N1CC2(CCCC2)c2ccccc21)c1ccccc1` (stereo not shown) [Compound I-117, 1′-(2-phenylpropanesulfonyl)-1′,2′-dihydrospiro[cyclopentane-1,3′-indole]], for which the EC50 is not below 10 µM.
